“And” between values parts separate entries of the source, which are not always exact repeats. Identical values can stand only once.
Assay: Food-effect crossover study, adverse events after single 20 mg amifampridine phosphate in healthy subjects (Examples 10, 11)
Format: in vivo
Experimental: This was a randomized, open-label, 2-treatment, 2-period crossover study with 44 completed subjects to assess the safety, tolerability, and the effect of food on the relative bioavailability of a single dose of amifampridine phosphate.
Safety was evaluated for all subjects who take at least one dose of 3,4-DAP. Safety was evaluated by recording the incidence of adverse events (AEs), physical examination, vital signs, concomitant medications, clinical laboratory assessments, and 12-lead electrocardiogram (ECG).
Analysis for the following safety parameters was carried out on the Safety Population: AEs which included all AEs, AEs by severity, drug-related AEs, deaths, SAEs, AEs leading to study discontinuation, and most frequent AEs, standard clinical laboratory tests, vital signs, ECG measurements, routine physical examinations, and prior and concomitant medications. The cut-off for frequency of AEs reported was determined based on the data. No formal statistical testing was performed for the safety analyses; only descriptive statistics were provided. Appropriate descriptive statistics for the safety data were determined using SAS Version 9.2.
AEs were coded according to the Medical Dictionary for Regulatory Activities (MedDRA; Version 13.0). […] The occurrence of AEs was assessed continuously from the time the subject signed the VID and consent. The reporting period for non-serious AEs was from the first dose to the final study visit. The investigator determined the severity of each event and the relationship of an AE to the IP and recorded it on the source documents and AE CRF. The nature, time of onset, duration, severity, and relationship to study drug was documented, including documentation of investigator assessment and review. All events were assessed to determine if the AE was serious.
The Investigator determined the severity of each event and the event was recorded on the source documents and AE CRF. A coding of “mild” meant there was no limitation of usual activities, “moderate” meant there was some limitation of usual activities, “severe” meant there was an inability to carry out usual activities.
The reporting period for AEs that met the criteria of an SAE began from the time of signing the VID and consent form through follow-up or early termination. […] Clinical Laboratory Assessments

Nc1ccncc1N.O=P(O)(O)O [amifampridine phosphate, 3,4-diaminopyridine phosphate]
Abdominal Pain Upper, drug-related AE: % of subjects (Fasted N=45): 4%
Abdominal Pain Upper, drug-related AE: events (Fasted N=45): 2
Abdominal Pain Upper, drug-related AE: subjects (Fasted N=45): 2
Abdominal Pain, drug-related AE: % of subjects (Fasted N=45): 7%
Abdominal Pain, drug-related AE: events (Fasted N=45): 3
Abdominal Pain, drug-related AE: subjects (Fasted N=45): 3
Abdominal Tenderness, drug-related AE: % of subjects (Fasted N=45): 2%
Abdominal Tenderness, drug-related AE: events (Fasted N=45): 1
Abdominal Tenderness, drug-related AE: subjects (Fasted N=45): 1
Acne, drug-related AE: % of subjects (Fasted N=45): 2%
Acne, drug-related AE: events (Fasted N=45): 1
Acne, drug-related AE: subjects (Fasted N=45): 1
All treatment emergent AEs, Mild: % of subjects (Fasted N=45): 53%
All treatment emergent AEs, Mild: events (Fasted N=45): 60
All treatment emergent AEs, Mild: subjects (Fasted N=45): 24
All treatment emergent AEs, Moderate: % of subjects (Fasted N=45): 2%
All treatment emergent AEs, Moderate: events (Fasted N=45): 1
All treatment emergent AEs, Moderate: subjects (Fasted N=45): 1
All treatment emergent AEs, Severe: % of subjects (Fasted N=45): (0%) [0]
All treatment emergent AEs, Severe: events (Fasted N=45): (0%) [0]
All treatment emergent AEs, Severe: subjects (Fasted N=45): 0
All treatment emergent AEs, Total: events (Fasted N=45): 61
Constipation, drug-related AE: % of subjects (Fasted N=45): (0%) [0]
Constipation, drug-related AE: events (Fasted N=45): (0%) [0]
Constipation, drug-related AE: subjects (Fasted N=45): 0
Diarrhoea, drug-related AE: % of subjects (Fasted N=45): 2%
Diarrhoea, drug-related AE: events (Fasted N=45): 1
Diarrhoea, drug-related AE: subjects (Fasted N=45): 1
Discontinued due to adverse events: % of subjects (Fasted N=45): (0%) [0]
Discontinued due to adverse events: events (Fasted N=45): (0%) [0]
Discontinued due to adverse events: subjects (Fasted N=45): 0
Dizziness, drug-related AE: % of subjects (Fasted N=45): 11%
Dizziness, drug-related AE: events (Fasted N=45): 5
Dizziness, drug-related AE: subjects (Fasted N=45): 5
Dysgeusia, drug-related AE: % of subjects (Fasted N=45): 2%
Dysgeusia, drug-related AE: events (Fasted N=45): 1
Dysgeusia, drug-related AE: subjects (Fasted N=45): 1
Fatigue, drug-related AE: % of subjects (Fasted N=45): 2%
Fatigue, drug-related AE: events (Fasted N=45): 1
Fatigue, drug-related AE: subjects (Fasted N=45): 1
Feeling Hot, drug-related AE: % of subjects (Fasted N=45): 2%
Feeling Hot, drug-related AE: events (Fasted N=45): 1
Feeling Hot, drug-related AE: subjects (Fasted N=45): 1
Flushing, drug-related AE: % of subjects (Fasted N=45): (0%) [0]
Flushing, drug-related AE: events (Fasted N=45): (0%) [0]
Flushing, drug-related AE: subjects (Fasted N=45): 0
Gastrointestinal Disorders Total, drug-related AE: % of subjects (Fasted N=45): 16%
Gastrointestinal Disorders Total, drug-related AE: events (Fasted N=45): 10
Gastrointestinal Disorders Total, drug-related AE: subjects (Fasted N=45): 7
General Disorders and Administration Site Conditions Total, drug-related AE: % of subjects (Fasted N=45): 4%
General Disorders and Administration Site Conditions Total, drug-related AE: events (Fasted N=45): 2
General Disorders and Administration Site Conditions Total, drug-related AE: subjects (Fasted N=45): 2
Headache, drug-related AE: % of subjects (Fasted N=45): 9%
Headache, drug-related AE: events (Fasted N=45): 4
Headache, drug-related AE: subjects (Fasted N=45): 4
Hypoaesthesia Facial, drug-related AE: % of subjects (Fasted N=45): 2%
Hypoaesthesia Facial, drug-related AE: events (Fasted N=45): 1
Hypoaesthesia Facial, drug-related AE: subjects (Fasted N=45): 1
Hypoaesthesia Oral, drug-related AE: % of subjects (Fasted N=45): 7%
Hypoaesthesia Oral, drug-related AE: events (Fasted N=45): 3
Hypoaesthesia Oral, drug-related AE: subjects (Fasted N=45): 3
Hypoaesthesia, drug-related AE: % of subjects (Fasted N=45): 4%
Hypoaesthesia, drug-related AE: events (Fasted N=45): 2
Hypoaesthesia, drug-related AE: subjects (Fasted N=45): 2
Nausea, drug-related AE: % of subjects (Fasted N=45): 7%
Nausea, drug-related AE: events (Fasted N=45): 3
Nausea, drug-related AE: subjects (Fasted N=45): 3
Nervous System Disorders Total, drug-related AE: % of subjects (Fasted N=45): 47%
Nervous System Disorders Total, drug-related AE: events (Fasted N=45): 43
Nervous System Disorders Total, drug-related AE: subjects (Fasted N=45): 21
Paraesthesia Oral, drug-related AE: % of subjects (Fasted N=45): 29%
Paraesthesia Oral, drug-related AE: events (Fasted N=45): 15
Paraesthesia Oral, drug-related AE: subjects (Fasted N=45): 13
Paraesthesia, drug-related AE: % of subjects (Fasted N=45): 22%
Paraesthesia, drug-related AE: events (Fasted N=45): 12
Paraesthesia, drug-related AE: subjects (Fasted N=45): 10
Possibly or probably related AEs, Mild: % of subjects (Fasted N=45): 47%
Possibly or probably related AEs, Mild: events (Fasted N=45): 55
Possibly or probably related AEs, Mild: subjects (Fasted N=45): 21
Possibly or probably related AEs, Moderate: % of subjects (Fasted N=45): 2%
Possibly or probably related AEs, Moderate: events (Fasted N=45): 1
Possibly or probably related AEs, Moderate: subjects (Fasted N=45): 1
Possibly or probably related AEs, Severe: % of subjects (Fasted N=45): (0%) [0]
Possibly or probably related AEs, Severe: events (Fasted N=45): (0%) [0]
Possibly or probably related AEs, Severe: subjects (Fasted N=45): 0
Possibly or probably related AEs, Total: % of subjects (Fasted N=45): 47%
Possibly or probably related AEs, Total: events (Fasted N=45): 56
Possibly or probably related AEs, Total: subjects (Fasted N=45): 21
Serious adverse events: % of subjects (Fasted N=45): (0%) [0]
Serious adverse events: events (Fasted N=45): (0%) [0]
Serious adverse events: subjects (Fasted N=45): 0
Skin and Subcutaneous Tissue Disorders Total, drug-related AE: % of subjects (Fasted N=45): 2%
Skin and Subcutaneous Tissue Disorders Total, drug-related AE: events (Fasted N=45): 1
Skin and Subcutaneous Tissue Disorders Total, drug-related AE: subjects (Fasted N=45): 1
Vascular Disorders Total, drug-related AE: % of subjects (Fasted N=45): (0%) [0]
Vascular Disorders Total, drug-related AE: events (Fasted N=45): (0%) [0]
Vascular Disorders Total, drug-related AE: subjects (Fasted N=45): 0
All treatment emergent AEs, Total: subjects (Fasted N=45, phosphate): 23 and 24
Abdominal Pain Upper, drug-related AE: % of subjects (Fed N=46): (0%) [0]
Abdominal Pain Upper, drug-related AE: events (Fed N=46): (0%) [0]
Abdominal Pain Upper, drug-related AE: subjects (Fed N=46): 0
Abdominal Pain, drug-related AE: % of subjects (Fed N=46): (0%) [0]
Abdominal Pain, drug-related AE: events (Fed N=46): (0%) [0]
Abdominal Pain, drug-related AE: subjects (Fed N=46): 0
Abdominal Tenderness, drug-related AE: % of subjects (Fed N=46): (0%) [0]
Abdominal Tenderness, drug-related AE: events (Fed N=46): (0%) [0]
Abdominal Tenderness, drug-related AE: subjects (Fed N=46): 0
Acne, drug-related AE: % of subjects (Fed N=46): (0%) [0]
Acne, drug-related AE: events (Fed N=46): (0%) [0]
Acne, drug-related AE: subjects (Fed N=46): 0
All treatment emergent AEs, Mild: % of subjects (Fed N=46): 48%
All treatment emergent AEs, Mild: events (Fed N=46): 38
All treatment emergent AEs, Mild: subjects (Fed N=46): 22
All treatment emergent AEs, Moderate: % of subjects (Fed N=46): 2%
All treatment emergent AEs, Moderate: events (Fed N=46): 1
All treatment emergent AEs, Moderate: subjects (Fed N=46): 1
All treatment emergent AEs, Severe: % of subjects (Fed N=46): 2%
All treatment emergent AEs, Severe: events (Fed N=46): 1
All treatment emergent AEs, Severe: subjects (Fed N=46): 1
All treatment emergent AEs, Total: events (Fed N=46): 40
Constipation, drug-related AE: % of subjects (Fed N=46): 2%
Constipation, drug-related AE: events (Fed N=46): 1
Constipation, drug-related AE: subjects (Fed N=46): 1

Source: patent US11274332B2, “Methods of administering 3,4-diaminopyridine” (SERB SA, priority 2011, dated 2022)
